The values below come from patent US20110039906A1, “ANTIBACTERIAL COMBINATION THERAPY” (priority 2007, published 2011).

In brackets after ≈: the same amount, converted by molar mass. Where two headings read alike, the source gives them in different places.

One assay concerns MRSA. The conditions noted are these: literature evidence (Taylor et al., 1987); cited from earlier work.
Another assay deals with Mu50exJapan (VISA). Put plainly: MIC by broth microdilution (experiment B). To be noted: Staphylococcus aureus, combination 1:1, value = mg/L total drug. Type of assay: cell-based. A general note: Broth dilution looks for growth in wells or tubes with falling amounts of substance.
Another assay deals with VISA 3900 UK (VISA). Put plainly: MIC by broth microdilution (experiment B). To be noted: Staphylococcus aureus, combination 1:1, value = mg/L total drug. Format: cell-based.
The subject of the next assay is USA/VISA 5836 (VISA). In words: MIC by broth microdilution (experiment B). Format: cell-based. The conditions noted are these: Staphylococcus aureus, combination 1:1, value = mg/L total drug.
Another assay deals with S. epidermidis 1228. Put plainly: MIC by broth microdilution (experiment B). Format: cell-based. To be noted: Staphylococcus epidermidis, combination 1:1, value = mg/L total drug.
The subject of the next assay is USA/VISA) 5827 (VISA. In words: MIC by broth microdilution (experiment B). Type of assay: cell-based. To be noted: Staphylococcus aureus, combination 1:1, value = mg/L total drug.
Assay [1] concerns 25 different MRSA isolates and 5 VRE isolates. In words: Pooled MIC testing (MIC50, MIC90, range). Format: cell-based. To be noted: 25 MRSA isolates and 5 VRE isolates. An excerpt: The MIC50 is the minimum inhibitory concentration required to inhibit the growth of 50% of the strains tested, and the MIC90, the concentration required to inhibit the growth of 90% of the strains tested.

Procedure for Mu50exJapan (VISA): (§1) Minimum inhibitory concentrations (MICs) of a range of clinical and control bacterial organisms were measured according to BSAC (British Society for Antimicrobial Chemotherapy) guidelines (Andrews 2001), for single agents and combinations of agents, described briefly as follows. MICs were measured by agar dilution (Experiment A) and by broth microdilution (experiment B).
(§2) Stock solutions were prepared at concentrations of 1000 mg/L and 100 mg/L. The appropriate amounts of each stock solution were added to separate Petri dishes give a range of final concentrations (after the addition of 20 mL molten agar): from 0.12 to 32 mg/L. In experiment A, a 1:1 ratio of each agent was added to the appropriate Petri dish so that a 2 mg/L plate contained 2 mg/L of each agent. Volumes (20 mL) of cooled molten IST agar (oxoid) was added to each Petri dish and mixed by swirling. After drying, the plates were stored at 4° C. and protected from light. Plates were used on the day of preparation.
(§3) The test organisms were grown overnight in 5 mL IST broth. […] For the broth microdilution, each well of a microtitre plate was inoculated with diluted overnight culture to give a final inoculum of 5×10^5 cfu/mL. […]
(§4) The MIC is the minimum amount of an antibiotic at which there is no visible growth of bacteria. Tiny single colonies or faint hazes were not counted as growth.
Procedure for S. epidermidis 1228: as §1, §2, §3, §4
Procedure for USA/VISA 5836 (VISA): as §1, §2, §3, §4
Procedure for USA/VISA) 5827 (VISA: as §1, §2, §3, §4
Procedure for VISA 3900 UK (VISA): as §1, §2, §3, §4

As for `CCN(CC)C(=S)S` [DDTC, diethyldithiocarbamate], the “antibacterial activity against MRSA” value in the assay with MRSA is “some antibacterial activity”.

Regarding `CCN(CC)C(=S)SSC(=S)N(CC)CC` [Disulfiram (ethanol), disulfiram], in the assay with MRSA, the “antibacterial activity against MRSA” value was “some antibacterial activity”.

`Clc1ccc(COC(Cn2ccnc2)c2ccc(Cl)cc2Cl)cc1` (stereo not drawn) [Econazole, 1-[2-[(4-Chlorphenyl)methoxy]-2-(2,4-dichlorophenyl)ethyl]-1H-imidazole]: the MIC (in general, the lowest concentration that inhibits growth of the organism) with Mu50exJapan (VISA) worked out at 8 µg/mL; with VISA 3900 UK (VISA), 8 µg/mL; in the assay with USA/VISA 5836 (VISA) it was 8 µg/mL; with S. epidermidis 1228 it was 2 µg/mL; in the assay with USA/VISA) 5827 (VISA it was 4 µg/mL.

Regarding `Clc1ccc(COC(Cn2ccnc2)c2ccc(Cl)cc2Cl)c(Cl)c1` (stereo not drawn) [Miconazole, 1-[2-(2,4-Dichlorophenyl)-2-[(2,4-dichlorophenyl)methoxy]ethyl]-1H-imidazole], the MIC in the assay on VISA 3900 UK (VISA) is 2 µg/mL; with USA/VISA 5836 (VISA) it was 8 µg/mL; in the assay on S. epidermidis 1228, 2 µg/mL; in assay [1] (read-out: highest MIC) it was 8 µg/mL (≈ 19.2 µM); in assay [1] (read-out: lowest MIC) it was 0.5 µg/mL (≈ 1.2 µM). Also, the “Range of MICs” value in assay [1] was in the range of 0.5 to 8 mg/L. Also, the MIC50 (usually an inhibitory concentration at the 50% level, which refers to growth in some studies and to a panel of isolates in others) in assay [1] (concentration inhibiting growth of 50% of strains) turned out to be 2 µg/mL (≈ 4.81 µM). Also, in assay [1] (concentration inhibiting growth of 90% of strains), the MIC90 (commonly an inhibitory concentration at the 90% level, which refers to growth in some studies and to a panel of isolates in others) was found to be 2 µg/mL (≈ 4.81 µM).
